ChEMBL document CHEMBL1201862, “PubChem BioAssay data set” (2004)
Activity calls are given as the source filed them.

What was measured:
[1] = A Cell Based Secondary Assay To Explore Cytotoxicity of Compounds that Sensitize Mycobacterium Tuberculosis to Beta-Lactam Antibiotics.; assay type: functional
[2] = inhibitors of firefly luciferase expression or activity, dose response, H4 neuroglioma cells, luminescence (AID 1990); assay type: functional, cell-based
[3] = Luminescence Cell-Based Dose Response HTS to Identify Inhibitors of 5'UTR Stem-Loop Driven Prion Protein mRNA Translation in H4 Neuroglioblastoma Cells. [Related pubchem assays: 1827 (Project Summary), 1813 (Primary HTS)]; assay type: functional
[4] = inhibitors of SNCA 5'UTR-driven reporter translation, confirmation, H4 neuroglioma cells, luminescence (AID 1988); assay type: functional, cell-based
NS3 = NS3 (Hepatitis C virus, UniProt A3EZJ3); experiment: PubChem AID 2173; set-up: species or system Hepacivirus hominis
[5] = Vero cell cytotoxicity, dose response, cytotoxicity control for Vif-APOBEC3G degradation inhibitor project, Vero cells (AID 1117358); assay type: functional; settings: Human immunodeficiency virus 1, Vero
Cytochrome P450 2D6 = Cytochrome P450 2D6 (Homo sapiens, UniProt P10635); experiment: qHTS Assay for Inhibitors and Substrates of Cytochrome P450 2D6. [Related pubchem assays: 410 ]; assay type: ADME; settings: read-out: Potency
[6] = Luminescence-based counterscreen assay for KLF5 inhibitors: dose response cell-based high throughput screening assay to identify cytotoxic compounds using the IEC-6 intestinal epithelial cell line. [Related pubchem assays: 1700 (Primary screen.), 1834 (Confirmation screen.), 1858 (Summary AID.), 1905 (Counterscreen.)]; assay type: functional
[7] = molecular target: T1, Microphthalmia-associated transcription factor (Homo sapiens, UniProt O75030); experiment: TRPM1 promoter luciferase signal decrease, dose response, MITF inhibitor project, cell-based, SK-MEL-5, cherry-picked, set 3 (AID 493073); assay type: functional
T1 sequence (O75030 whole entry): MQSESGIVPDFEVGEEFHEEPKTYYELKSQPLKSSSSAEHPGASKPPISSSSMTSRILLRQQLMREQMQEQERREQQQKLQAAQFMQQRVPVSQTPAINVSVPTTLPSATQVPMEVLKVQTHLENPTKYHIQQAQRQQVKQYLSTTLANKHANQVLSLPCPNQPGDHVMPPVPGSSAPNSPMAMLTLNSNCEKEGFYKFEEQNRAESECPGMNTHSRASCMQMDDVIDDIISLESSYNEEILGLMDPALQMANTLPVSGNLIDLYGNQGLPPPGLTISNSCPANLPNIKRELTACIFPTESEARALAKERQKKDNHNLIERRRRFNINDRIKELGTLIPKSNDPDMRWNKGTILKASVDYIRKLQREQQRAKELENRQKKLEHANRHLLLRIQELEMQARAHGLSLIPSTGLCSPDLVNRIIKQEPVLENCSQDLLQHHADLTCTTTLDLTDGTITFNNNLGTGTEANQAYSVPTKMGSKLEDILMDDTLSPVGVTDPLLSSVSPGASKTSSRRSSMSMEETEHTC

[8] = Shn3 3'UTR reporter inhibitors, dose response, cell-based, Clone20 osteoblasts, firefly luciferase, cherry-picked (AID 624132); assay type: functional;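 further: firefly luciferase luminescence from reporter carrying the Shn3 3'UTR in osteoblasts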
[9] = HepG2 cell cytotoxicity, dose response, cytotoxicity control for Shn3 inhibitor project, CellTiter-Glo, cherry-picked (AID 624134); assay type: functional, cell-based
Protein skinhead-1 = molecular target: T2, Protein skinhead-1 (Caenorhabditis elegans, UniProt P34707); assay type: functional
T2 sequence (P34707 whole entry): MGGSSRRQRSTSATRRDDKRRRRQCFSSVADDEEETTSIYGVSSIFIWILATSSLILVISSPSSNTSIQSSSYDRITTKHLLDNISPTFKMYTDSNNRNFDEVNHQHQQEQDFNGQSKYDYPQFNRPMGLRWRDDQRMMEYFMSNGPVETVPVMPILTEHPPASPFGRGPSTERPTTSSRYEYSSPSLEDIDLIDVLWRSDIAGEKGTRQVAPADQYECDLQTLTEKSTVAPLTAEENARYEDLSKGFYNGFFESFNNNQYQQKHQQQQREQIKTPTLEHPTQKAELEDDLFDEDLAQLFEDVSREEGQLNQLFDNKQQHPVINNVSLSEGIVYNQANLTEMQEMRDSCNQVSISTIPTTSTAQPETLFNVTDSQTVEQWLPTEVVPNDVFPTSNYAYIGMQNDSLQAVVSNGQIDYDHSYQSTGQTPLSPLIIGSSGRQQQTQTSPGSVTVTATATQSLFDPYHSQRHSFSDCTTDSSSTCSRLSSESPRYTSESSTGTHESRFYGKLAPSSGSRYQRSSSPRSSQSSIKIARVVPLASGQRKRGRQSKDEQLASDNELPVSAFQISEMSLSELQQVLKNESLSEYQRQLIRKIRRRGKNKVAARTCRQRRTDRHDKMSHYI

[10] = molecular target: Photoreceptor-specific nuclear receptor (Homo sapiens, UniProt Q9Y5X4); assay type: functional, cell-based;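 further: CHO-S cells with Gal4-NCOR and VP16-NR2E3 two-hybrid luciferase reporter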
[11] = reduction of Shn3 3'UTR firefly luciferase signal, dose response, Schnurri-3 inhibitor project, cell-based, Clone20 osteoblasts, cherry-pick, set 2 (AID 720490); assay type: functional;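 further: actives lower the luminescence signal as inhibitors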
[12] = molecular target: Muscarinic acetylcholine receptor M4 (Rattus norvegicus, UniProt P08485); experiment: Discovery of novel allosteric modulators of the M1 muscarinic receptor: Agonist NMS competition at M4. [Related pubchem assays: 626, 1488, 1741 ]; assay type: functional
[13] = molecular target: Muscarinic acetylcholine receptor M2 (Homo sapiens, UniProt P08172); experiment: Discovery of novel allosteric modulators of the M1 muscarinic receptor: Agonist NMS competition at M2. [Related pubchem assays: 626 (Discovery of Novel Allosteric Modulators of the M1 Muscarinic Receptor: Agonist Primary Screen), 1488 (Discovery of novel allosteric modulators of the M1 muscarinic receptor: Agonist Confirmation Assay)]; assay type: functional
[14] = molecular target: Muscarinic acetylcholine receptor M5 (Homo sapiens, UniProt P08912); experiment: (§1) Discovery of novel allosteric modulators of the M1 muscarinic receptor: Agonist NMS competition at M5. [Related pubchem assays: 1488 (Discovery of novel allosteric modulators of the M1 muscarinic receptor: Agonist Confirmation Assay), 626 (Discovery of Novel Allosteric Modulators of the M1 Muscarinic Receptor: Agonist Primary Screen)]; assay type: functional
[15] = molecular target: Muscarinic acetylcholine receptor M3 (Homo sapiens, UniProt P20309); experiment: as §1, with “M3.” for “M5.”; assay type: functional
[16] = molecular target: Muscarinic acetylcholine receptor M1 (Rattus norvegicus, UniProt P08482); experiment: Discovery of novel allosteric modulators of the M1 muscarinic receptor: Agonist NMS binding at M1. [Related pubchem assays: 626 ]
Streptococcus [17] = experiment: Luminescence Microorganism-Based Dose Response Follow up to Identify Compounds Cytotoxic to Streptococcus. [Related pubchem assays: 1677 (Project Summary), 1915, 1914, 1902 (Retest at Dose), 1900 (Counter Screen), 1662 (Primary HTS)]; assay type: functional, organism-based
Leucine aminopeptidase = molecular target: T3, Leucine aminopeptidase (Plasmodium falciparum 3D7, UniProt Q8IL11); experiment: P. falciparum M17LAP inhibitors, primary screen, biochemical, fluorogenic H-Leu-NHMec substrate, 1536-well (AID 1619); assay type: functional
T3 sequence (Q8IL11 whole entry): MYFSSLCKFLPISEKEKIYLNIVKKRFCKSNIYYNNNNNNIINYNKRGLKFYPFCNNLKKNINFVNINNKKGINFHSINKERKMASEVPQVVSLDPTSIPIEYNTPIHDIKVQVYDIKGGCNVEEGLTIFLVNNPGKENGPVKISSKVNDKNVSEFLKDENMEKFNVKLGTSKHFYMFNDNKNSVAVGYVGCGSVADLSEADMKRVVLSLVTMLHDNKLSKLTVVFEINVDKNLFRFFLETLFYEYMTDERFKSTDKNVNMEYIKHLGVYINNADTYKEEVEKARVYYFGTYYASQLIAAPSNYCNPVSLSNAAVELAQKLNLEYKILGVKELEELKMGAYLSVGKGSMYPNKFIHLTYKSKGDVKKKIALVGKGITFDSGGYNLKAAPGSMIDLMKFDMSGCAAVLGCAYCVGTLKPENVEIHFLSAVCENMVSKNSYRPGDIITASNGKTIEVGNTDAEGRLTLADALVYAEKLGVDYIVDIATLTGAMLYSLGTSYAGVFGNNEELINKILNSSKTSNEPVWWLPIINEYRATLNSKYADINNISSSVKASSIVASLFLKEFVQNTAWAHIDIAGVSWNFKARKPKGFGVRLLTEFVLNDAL

[18] = Counterscreen for IDE inhibitors: Luminescence-based cell-based high throughput dose response assay to identify compounds that are cytotoxic to HEK cells. [Related pubchem assays: 434962 (Primary screen (IDE inhibitors in singlicate)), 449730 (Counterscreen (Cytotoxicity in triplicate)), 435028 (Confirmation (IDE inhibitors in triplicate)) …; assay type: functional; settings: HEK293
Insulin-degrading enzyme = molecular target: T4, Insulin-degrading enzyme (Homo sapiens, UniProt P14735); experiment: Dose Response: Fluorescence polarization-based cell-based high throughput dose response assay for inhibitors of insulin-degrading enzyme (IDE). [Related pubchem assays: 434962 (Primary screen (IDE inhibitors in singlicate)), 449730 (Counterscreen (Cytotoxicity in triplicate)), 435028 (Confirmation (IDE inhibitors in triplicate)), 434984 (Summary …; assay type: functional
T4 sequence (P14735 whole entry): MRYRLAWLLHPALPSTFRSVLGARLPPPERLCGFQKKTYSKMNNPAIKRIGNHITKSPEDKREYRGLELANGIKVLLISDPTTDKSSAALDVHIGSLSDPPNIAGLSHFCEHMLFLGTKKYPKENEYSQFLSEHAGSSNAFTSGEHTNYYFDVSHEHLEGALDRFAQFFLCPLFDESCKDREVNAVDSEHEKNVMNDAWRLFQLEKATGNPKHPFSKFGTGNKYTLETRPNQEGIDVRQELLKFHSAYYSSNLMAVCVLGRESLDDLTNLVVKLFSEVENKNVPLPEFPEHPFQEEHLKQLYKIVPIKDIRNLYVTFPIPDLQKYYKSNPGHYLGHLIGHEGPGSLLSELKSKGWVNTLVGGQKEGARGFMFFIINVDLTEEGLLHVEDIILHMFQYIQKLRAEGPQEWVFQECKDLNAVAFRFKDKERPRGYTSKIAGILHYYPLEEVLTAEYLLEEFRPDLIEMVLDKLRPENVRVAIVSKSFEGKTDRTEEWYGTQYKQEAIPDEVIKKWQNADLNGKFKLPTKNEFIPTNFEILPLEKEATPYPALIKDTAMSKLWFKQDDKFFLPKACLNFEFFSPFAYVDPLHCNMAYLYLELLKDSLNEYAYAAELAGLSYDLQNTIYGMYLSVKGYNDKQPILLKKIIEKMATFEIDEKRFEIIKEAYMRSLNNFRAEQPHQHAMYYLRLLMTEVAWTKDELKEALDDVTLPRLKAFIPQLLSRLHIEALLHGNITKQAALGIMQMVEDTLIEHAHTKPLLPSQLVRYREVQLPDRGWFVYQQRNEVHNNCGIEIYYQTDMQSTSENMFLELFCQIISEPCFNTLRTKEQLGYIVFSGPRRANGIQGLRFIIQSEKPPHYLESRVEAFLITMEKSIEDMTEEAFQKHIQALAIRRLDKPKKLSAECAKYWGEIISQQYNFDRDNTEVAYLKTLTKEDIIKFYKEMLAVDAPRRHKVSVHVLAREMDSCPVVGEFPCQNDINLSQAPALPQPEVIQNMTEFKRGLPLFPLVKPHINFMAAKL

[19] = enhancers of respiration in Yfh1-depleted yeast, dose response, Friedreich's ataxia, plus single-dose screen (AID 1465); assay type: functional;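 further: yeast depleted of Yfh1p frataxin homolog grown on glycerol needing respiration; WST-1 tetrazolium dye reduction as measure of cellular dehydrogenase metabolic activity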
[20] = test system: Streptococcus sp. 'group A'; experiment: growth inhibition of control SK(-) GAS strain, dose response, counter-screen for streptokinase expression inhibitor project, luminescence, kanamycin, BacTiterGlo, confirmation (AID 1900); assay type: functional, organism-based
[21] = cytotoxicity in HPDE-C7 cells, cell-based, fluorescence, HTS (AID 430); assay type: functional; settings: Homo sapiens
[22] = cytotoxicity in KRAS-transformed pancreatic duct cells, primary screen, cell-based, fluorescence, HTS (AID 431); assay type: functional; settings: Homo sapiens;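 further: cell line used: HPDE-C7K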
[23] = inhibitors of Bluetongue virus cytopathic effect, confirmation, arbovirus, BSR cells (AID 1250); assay type: functional;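 further: protection from viral cytopathic effect measured as cell viability by ATP luminescence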
Streptococcus [24] = experiment: Group A Streptococcus viability loss, dose response, counter-screen for streptokinase expression inhibitor project, luminescence, BacTiterGlo (AID 1915); assay type: functional, organism-based;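 further: potency for reduction of bacterial viability or growth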

Chain of NS3 (A3EZJ3 whole entry): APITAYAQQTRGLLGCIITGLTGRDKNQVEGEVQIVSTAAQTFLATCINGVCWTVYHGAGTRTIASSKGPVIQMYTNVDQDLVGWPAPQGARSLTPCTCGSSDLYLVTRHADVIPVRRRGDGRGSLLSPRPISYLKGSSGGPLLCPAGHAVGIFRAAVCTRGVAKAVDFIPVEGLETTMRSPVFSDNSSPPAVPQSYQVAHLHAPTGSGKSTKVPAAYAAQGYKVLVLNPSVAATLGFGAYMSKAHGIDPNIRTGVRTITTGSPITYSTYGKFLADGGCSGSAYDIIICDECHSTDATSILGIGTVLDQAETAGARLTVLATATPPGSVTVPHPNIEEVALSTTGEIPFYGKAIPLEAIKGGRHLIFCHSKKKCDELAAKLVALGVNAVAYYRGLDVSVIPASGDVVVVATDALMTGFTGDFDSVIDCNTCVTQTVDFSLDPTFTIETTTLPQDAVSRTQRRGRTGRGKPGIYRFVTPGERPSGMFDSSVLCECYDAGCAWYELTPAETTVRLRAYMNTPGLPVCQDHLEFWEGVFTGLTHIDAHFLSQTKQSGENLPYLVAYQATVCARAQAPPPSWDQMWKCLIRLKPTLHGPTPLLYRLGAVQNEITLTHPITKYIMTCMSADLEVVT
Chain of Muscarinic acetylcholine receptor M2 (P08172 whole entry): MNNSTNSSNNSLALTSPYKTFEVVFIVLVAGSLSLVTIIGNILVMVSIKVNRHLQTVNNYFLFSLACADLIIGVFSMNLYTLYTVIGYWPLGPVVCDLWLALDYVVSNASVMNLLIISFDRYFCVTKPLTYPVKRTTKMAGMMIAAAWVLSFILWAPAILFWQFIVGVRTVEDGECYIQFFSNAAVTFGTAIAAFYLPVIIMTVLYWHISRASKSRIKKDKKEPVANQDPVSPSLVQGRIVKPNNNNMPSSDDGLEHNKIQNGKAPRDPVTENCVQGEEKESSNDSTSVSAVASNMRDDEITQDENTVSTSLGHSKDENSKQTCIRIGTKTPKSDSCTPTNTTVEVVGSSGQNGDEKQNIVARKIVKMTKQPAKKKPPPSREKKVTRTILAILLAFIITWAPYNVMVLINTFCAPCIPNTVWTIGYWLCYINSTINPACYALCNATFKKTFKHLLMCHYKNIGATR
Chain of Photoreceptor-specific nuclear receptor (Q9Y5X4 whole entry, the tested form may be a part): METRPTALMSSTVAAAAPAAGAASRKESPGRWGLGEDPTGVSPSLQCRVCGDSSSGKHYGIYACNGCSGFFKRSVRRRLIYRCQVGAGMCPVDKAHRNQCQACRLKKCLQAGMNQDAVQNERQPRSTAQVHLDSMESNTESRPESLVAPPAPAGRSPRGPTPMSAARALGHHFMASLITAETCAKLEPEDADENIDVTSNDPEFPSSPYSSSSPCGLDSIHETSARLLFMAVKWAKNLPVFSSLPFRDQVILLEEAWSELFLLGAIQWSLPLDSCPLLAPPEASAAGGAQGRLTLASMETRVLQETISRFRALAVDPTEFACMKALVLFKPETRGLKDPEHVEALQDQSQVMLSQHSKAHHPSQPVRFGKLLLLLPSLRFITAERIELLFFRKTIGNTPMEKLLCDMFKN
Chain of Muscarinic acetylcholine receptor M4 (P08485 whole entry): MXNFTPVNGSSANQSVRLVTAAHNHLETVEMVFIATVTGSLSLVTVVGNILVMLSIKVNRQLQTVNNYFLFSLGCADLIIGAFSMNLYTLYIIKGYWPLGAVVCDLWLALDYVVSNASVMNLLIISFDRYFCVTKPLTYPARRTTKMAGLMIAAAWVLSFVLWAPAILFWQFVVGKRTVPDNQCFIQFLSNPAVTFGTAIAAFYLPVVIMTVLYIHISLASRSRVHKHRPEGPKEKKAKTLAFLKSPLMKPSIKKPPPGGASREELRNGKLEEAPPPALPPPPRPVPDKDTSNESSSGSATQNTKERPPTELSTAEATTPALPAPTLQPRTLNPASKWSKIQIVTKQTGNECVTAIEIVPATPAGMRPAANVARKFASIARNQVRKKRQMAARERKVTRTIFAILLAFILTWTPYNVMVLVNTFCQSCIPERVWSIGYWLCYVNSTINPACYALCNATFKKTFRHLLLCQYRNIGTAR
Chain of Muscarinic acetylcholine receptor M1 (P08482 whole entry): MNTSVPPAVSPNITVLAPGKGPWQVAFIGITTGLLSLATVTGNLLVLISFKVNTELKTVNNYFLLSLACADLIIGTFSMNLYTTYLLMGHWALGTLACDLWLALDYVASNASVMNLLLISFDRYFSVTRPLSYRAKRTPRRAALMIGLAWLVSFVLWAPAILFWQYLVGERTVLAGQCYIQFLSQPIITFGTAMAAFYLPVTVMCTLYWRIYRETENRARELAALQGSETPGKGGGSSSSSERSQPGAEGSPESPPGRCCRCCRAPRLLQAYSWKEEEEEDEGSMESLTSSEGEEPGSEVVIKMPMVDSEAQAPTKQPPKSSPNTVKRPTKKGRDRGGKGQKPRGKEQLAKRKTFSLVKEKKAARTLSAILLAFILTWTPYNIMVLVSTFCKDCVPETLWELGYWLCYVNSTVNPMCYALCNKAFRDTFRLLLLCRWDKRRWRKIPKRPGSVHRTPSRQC
Chain of Muscarinic acetylcholine receptor M3 (P20309 whole entry): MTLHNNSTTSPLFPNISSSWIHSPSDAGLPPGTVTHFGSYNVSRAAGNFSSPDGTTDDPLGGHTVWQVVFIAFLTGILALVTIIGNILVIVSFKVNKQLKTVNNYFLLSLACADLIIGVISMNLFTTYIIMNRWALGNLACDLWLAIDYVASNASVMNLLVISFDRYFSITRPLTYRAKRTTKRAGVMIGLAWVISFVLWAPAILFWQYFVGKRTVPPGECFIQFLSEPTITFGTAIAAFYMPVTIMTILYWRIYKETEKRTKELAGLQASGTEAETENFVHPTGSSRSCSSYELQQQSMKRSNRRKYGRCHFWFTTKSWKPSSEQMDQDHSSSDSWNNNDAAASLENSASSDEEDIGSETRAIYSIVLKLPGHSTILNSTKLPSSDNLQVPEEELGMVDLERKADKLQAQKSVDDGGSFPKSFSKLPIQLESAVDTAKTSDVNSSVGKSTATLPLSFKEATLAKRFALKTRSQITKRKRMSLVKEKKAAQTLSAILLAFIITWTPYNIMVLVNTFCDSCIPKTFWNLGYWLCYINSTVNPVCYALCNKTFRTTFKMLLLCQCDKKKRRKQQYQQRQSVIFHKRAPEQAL
Chain of Cytochrome P450 2D6 (P10635 whole entry): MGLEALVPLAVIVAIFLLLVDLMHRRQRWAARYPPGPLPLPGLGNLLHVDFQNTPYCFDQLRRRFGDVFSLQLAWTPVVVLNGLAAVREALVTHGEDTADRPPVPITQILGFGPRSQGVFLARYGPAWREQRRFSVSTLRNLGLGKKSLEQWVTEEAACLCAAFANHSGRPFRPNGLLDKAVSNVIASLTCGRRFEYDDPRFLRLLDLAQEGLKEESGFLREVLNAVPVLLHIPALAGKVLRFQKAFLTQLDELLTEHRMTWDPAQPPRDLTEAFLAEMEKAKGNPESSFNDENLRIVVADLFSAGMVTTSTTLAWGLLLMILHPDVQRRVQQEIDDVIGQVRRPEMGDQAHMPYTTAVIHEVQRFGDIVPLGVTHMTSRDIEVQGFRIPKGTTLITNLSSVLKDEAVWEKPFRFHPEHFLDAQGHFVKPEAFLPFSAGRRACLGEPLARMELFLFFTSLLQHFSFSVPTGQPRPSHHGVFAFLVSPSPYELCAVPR
Chain of Muscarinic acetylcholine receptor M5 (P08912 whole entry): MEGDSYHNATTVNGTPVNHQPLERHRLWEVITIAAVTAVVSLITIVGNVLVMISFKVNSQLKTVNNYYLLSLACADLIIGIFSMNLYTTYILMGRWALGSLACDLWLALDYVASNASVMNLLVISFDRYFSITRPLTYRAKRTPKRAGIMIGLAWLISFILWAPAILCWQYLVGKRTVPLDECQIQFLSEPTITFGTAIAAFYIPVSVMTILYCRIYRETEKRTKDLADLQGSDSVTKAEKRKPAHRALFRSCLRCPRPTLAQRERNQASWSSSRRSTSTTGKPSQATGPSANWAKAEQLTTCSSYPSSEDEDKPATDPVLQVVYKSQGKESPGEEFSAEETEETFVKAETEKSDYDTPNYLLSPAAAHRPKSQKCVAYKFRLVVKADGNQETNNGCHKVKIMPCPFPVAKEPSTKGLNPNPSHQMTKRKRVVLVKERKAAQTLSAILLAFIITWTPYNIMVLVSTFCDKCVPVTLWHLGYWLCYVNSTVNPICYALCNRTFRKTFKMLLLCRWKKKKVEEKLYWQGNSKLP

SMILES: O=C(CSc1nnc(SCc2ccccc2)s1)N/N=C/c1ccc(Cl)cc1Cl
- CC50 [1]: 38.4 µM (active)

SMILES: O=c1c2c(-c3ccco3)csc2nc(SCc2cn3cccnc3n2)n1-c1ccccc1
- EC50 [2]: 13.9 µM (active)
- EC50 [3]: > 120 µM (not active)
- EC50 [4]: 38.5 µM (active)
- IC50 (NS3): 49.7 µM (not active)
- CC50 [5]: > 40 µM (active)

SMILES: CCOC(=O)OCC1OC(C#Cc2ccccc2)C=CC1Oc1cccc(N(C)C)c1 (centres undefined)
- AC50 (Cytochrome P450 2D6): 3.98 µM (inconclusive)

SMILES: CC(C)(C)C(=O)Nc1cc2nn(-c3ccccc3)nc2cc1Cl
- IC50 [6]: > 39.8 µM (not active)
- AC50 [7]: 0.495 µM (active)
- AC50 [8]: 5.16 µM (active)
- AC50 [9]: > 70 µM (inactive)
- IC50 (Protein skinhead-1): > 100 µM (inactive)
- IC50 [10]: 0.152 µM (active)
- AC50 [11]: 49.5 µM (active)

SMILES: CCOC(=O)N1CCC(NCCNC(=O)c2ccccc2C)CC1
- EC50 [12]: 240 µM (inconclusive)
- EC50 [13]: 95.7 µM (inconclusive)
- EC50 [14]: 24.1 µM (inconclusive)
- EC50 [15]: 360 µM (inconclusive)
- EC50 [16]: 25.1 µM (inconclusive)

SMILES: CN(C)C1C(=O)C(C(N)=O)C(=O)C2(O)C(=O)C3C(=O)c4c(O)cccc4C(C)(O)C3CC12 (centres undefined)
- EC50 (Streptococcus [17]): 0.402 µM (active)

SMILES: C=CCN1C=CC(=CC=C(C#N)C#N)C=C1
- IC50 (Leucine aminopeptidase): 72.2 µM (active)
- IC50 [18]: > 55.7 µM (not active)
- IC50 (Insulin-degrading enzyme): 10.4 µM (not active)
- EC50 [19]: > 100 µM (active)

SMILES: CCOC(=O)C1=Nc2ccccc2C1=[N+]=[N-]
- EC50 [20]: 0.379 µM (active)
- EC50 [21]: 19.9 µM (active)
- EC50 [22]: 7.83 µM (active)
- IC50 [23]: 21.4 µM (active)
- EC50 (Streptococcus [24]): 2.27 µM (active)
